Measurements taken from patent publication US4450269A, “Mono-5-substituted-3-chloro-4H-1,2,6-thiadiazin-4-one antifungal agents” (FMC Corporation, priority 1980, dated 1984).

How the values were obtained:
Alternaria solani = test: Spore germination test; format: cell-based; settings: AS, 48 hours
Procedure, shortened: (§1)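 Compound in acetone was mixed into water agar at final 40, 10, 2.5 and 1 ppm and poured into quadrant dishes. Quadrants received spore suspension, while Erysiphe polygoni and Uromyces phaseoli spores were brushed on from infected leaves. After 48 h at 24 °C, the percentage of germinated spores was converted to a germination rating.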

Botrytis cinerea = test: Spore germination test; format: cell-based; settings: BC, 48 hours
Procedure, shortened: as §1

Uromyces phaseoli [1] = test: Spore germination test; format: cell-based; settings: UP, 48 hours
Procedure, shortened: as §1

Uromyces phaseoli [2] = test: whole plant or invertebrate; settings: foliar, read-out: Percent Disease Control, foliar, bean rust

| SMILES | Spore Germination Rating (Alternaria solani; 1.0 ppm) | Spore Germination Rating (Alternaria solani; 2.5 ppm) | Spore Germination Rating (Alternaria solani; 10 ppm) | Spore Germination Rating (Alternaria solani; 40 ppm) | Spore Germination Rating (Botrytis cinerea; 1.0 ppm) | Spore Germination Rating (Botrytis cinerea; 2.5 ppm) | Spore Germination Rating (Botrytis cinerea; 10 ppm) | Spore Germination Rating (Botrytis cinerea; 40 ppm) | Spore Germination Rating (Uromyces phaseoli [1]; 1.0 ppm) | Spore Germination Rating (Uromyces phaseoli [1]; 2.5 ppm) | Spore Germination Rating (Uromyces phaseoli [1]; 10 ppm) | Spore Germination Rating (Uromyces phaseoli [1]; 40 ppm) | pest or weed control at 150 ppm (Uromyces phaseoli [2]) |
| --- | --- | --- | --- | --- | --- | --- | --- | --- | --- | --- | --- | --- | --- |
| O=c1c(Cl)nsnc1Oc1ccc([N+](=O)[O-])cc1Cl [Compound 53, 3-chloro-5-(2-chloro-4-nitrophenoxy)-4H--1,2,6-thiadiazin-4-one] | 2 (40-60) | 0 (0-10) | 0 (0-10) | 0 (0-10) | 3 (60-80) | 0 (0-10) | 0 (0-10) | 0 (0-10) | 1 (10-40) | 0 (0-10) | 0 (0-10) | 0 (0-10) | 100% |
| Cc1cccc(Oc2nsnc(Cl)c2=O)c1 [Compound 21, 3-chloro-5-(3-methylphenoxy)-4H--1,2,6-thiadiazin-4-one] | 3 (60-80) | 1 (10-40) | 0 (0-10) | 0 (0-10) | 4 (80-100) | 3 (60-80) | 0 (0-10) | 0 (0-10) | 4 (80-100) | 2 (40-60) | 0 (0-10) | 0 (0-10) | 100% |
| O=c1c(Cl)nsnc1Oc1cccc(C(F)(F)F)c1 [Compound 44, 3-chloro-5-[(3-trifluoromethyl)phenoxy]-4H--1,2,6-thiadiazin-4-one] | 4 (80-100) | 1 (10-40) | 0 (0-10) | 0 (0-10) | 4 (80-100) | 3 (60-80) | 0 (0-10) | 0 (0-10) | 1 (10-40) | 0 (0-10) | 0 (0-10) | 0 (0-10) | 100% |
| O=c1c(Cl)nsnc1Oc1ccc([N+](=O)[O-])cc1 [Compound 9, 3-chloro-5-(4-nitrophenoxy)-4H--1,2,6-thiadiazin-4-one] | 0 (0-10) | 0 (0-10) | 0 (0-10) | 0 (0-10) | 0 (0-10) | 0 (0-10) | 0 (0-10) | 0 (0-10) | 0 (0-10) | 0 (0-10) | 0 (0-10) | 0 (0-10) | 98% |
| O=c1c(Cl)nsnc1Oc1ccccc1Cl [Compound 14, 3-chloro-5-(2-chlorophenoxy)-4H--1,2,6-thiadiazin-4-one] | 3 (60-80) | 2 (40-60) | 0 (0-10) | 0 (0-10) | 3 (60-80) | 0 (0-10) | 0 (0-10) | 0 (0-10) | 0 (0-10) | 0 (0-10) | 0 (0-10) | 0 (0-10) | 0% |
| CC(=O)Nc1ccccc1Oc1nsnc(Cl)c1=O [Compound 43, 3-[(2-acetylamino)-phenoxy]-5-chloro-4H--1,2,6-thiadiazin-4-one] | 4 (80-100) | 4 (80-100) | 4 (80-100) | 3 (60-80) | 4 (80-100) | 4 (80-100) | 4 (80-100) | 3 (60-80) | 4 (80-100) | 4 (80-100) | 4 (80-100) | 4 (80-100) | 0% |
| COc1ccc(Oc2nsnc(Cl)c2=O)cc1 [Compound 5, 3-chloro-5-(4-methoxyphenoxy)4H--1,2,6-thiadiazin-4-one] | 2 (40-60) | 0 (0-10) | 0 (0-10) | 0 (0-10) | 4 (80-100) | 4 (80-100) | 1 (10-40) | 0 (0-10) | 1 (10-40) | 1 (10-40) | 0 (0-10) | 0 (0-10) | 100% |
